Data published in paper PMC7288058, “Modulating the Properties of Fe(III) Macrocyclic MRI Contrast Agents by Appending Sulfonate or Hydroxyl Groups” (Molecules, 2020).
Where “and” joins values, the source holds several entries; their conditions need not be identical. Identical values can stand only once. Like-named read-outs stand apart in the source and are kept apart here.

Columns and labels:
[1] = parameters: method as in PMID 31725934; conditions: 100 mM HCl, cited from earlier work
[2] = 'was reported', reference not given, cited from earlier work
Balb/c mice [3] = system: Balb/c mice; parameters: method as in PMID 31725934; conditions: cited from earlier work
[4] = molecular target: T1, human serum albumin (HSA) (Homo sapiens, UniProt P02768); assay: Binding to human serum albumin by ultrafiltration / ICP-MS; type: in vitro ADME; conditions: 0.4 mM complex, HSA 4.5% (w/v) (0.7 mM), 20 mM HEPES pH 7.4, 100 mM NaCl, 37 °C, 20 min
T1 construct: Albumin from human serum (fatty acid free) was purchased from Sigma-Aldrich; purchased Sigma-Aldrich; host or cells: purified from human serum
T1 sequence (P02768 25-609): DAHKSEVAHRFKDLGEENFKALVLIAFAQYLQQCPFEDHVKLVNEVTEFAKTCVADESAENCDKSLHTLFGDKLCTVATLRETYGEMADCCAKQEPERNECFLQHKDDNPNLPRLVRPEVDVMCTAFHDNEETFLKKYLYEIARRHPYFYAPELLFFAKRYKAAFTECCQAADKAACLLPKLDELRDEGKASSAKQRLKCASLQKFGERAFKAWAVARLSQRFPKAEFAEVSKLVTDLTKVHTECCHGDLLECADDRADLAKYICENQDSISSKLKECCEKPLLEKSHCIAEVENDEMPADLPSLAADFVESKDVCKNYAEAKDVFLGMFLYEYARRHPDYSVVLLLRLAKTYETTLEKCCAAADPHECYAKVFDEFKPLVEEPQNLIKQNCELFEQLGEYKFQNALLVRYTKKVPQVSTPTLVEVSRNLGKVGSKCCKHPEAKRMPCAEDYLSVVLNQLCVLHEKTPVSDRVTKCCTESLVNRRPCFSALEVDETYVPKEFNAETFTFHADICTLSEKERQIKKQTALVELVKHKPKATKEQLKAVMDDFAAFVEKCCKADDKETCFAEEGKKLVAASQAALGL
Method: Binding of the Fe(III) complexes to human serum albumin (HSA) was studied by using ultrafiltration across a MW 5000 cutoff membrane. The solutions containing HEPES buffer (pH 7.4) and salt NaCl were incubated at 37 °C for 20 min. Solutions contained 0.4 mM Fe(III) complex and 4.5 % (w/v) HSA (0.7 mM). The binding percentages were measured by using ICP-MS to analyze the Fe concentration in the unbound complex solutions after HSA incubation (Table 1). The protein binding for Fe(L3)(OH2) was higher (75%) than for Fe(L1)(OH2) (37%) or Fe(L2) (11%).
The molecular weight of 66,435 Da was used to determine the molar concentrations of HSA. Fe(III) complex (0.400 mM) solutions were incubated with 4.5% (w/v) HSA in 0.100 M NaCl and 20.0 mM HEPES buffer (pH 7.4). All solutions were incubated at 37 °C for 20 min [42]. Aliquots (0.300 mL) were placed in ultra-centrifugal filter units with a 5-kDa membrane and centrifuged at 3500× g for 10 min. The filtrates were used to determine Fe concentration from digested unbound Fe(III) complexes by using ICP-MS.

Balb/c mice [5] = assay: Dynamic T1-weighted MRI in mice after tail vein injection (4.7 T); type: in vivo; conditions: healthy mouse, 0.05 mmol/kg, kidneys/blood, up to 45 min
Source text: The two new Fe(III) complexes, Fe(L1)(OH2) and […], and the Gd(III) agent, Gd(DOTA), were studied in Balb/c mice on a small animal 4.7-T MRI scanner upon tail vein injection of the agent (Figure S24, Supplementary Materials). […] Biodistribution and pharmacokinetic clearance of the complexes in mice were monitored by using dynamic MRI.
In vivo imaging studies with the Fe(III) complexes were studied on at 4.7 T Bruker preclinical MRI in mice (BABC/cJ, Jackson Laboratory) in accordance with approved Institutional Animal Care and Use Committee (IACUC) protocols. The samples with a concentration of 0.050, 0.100, and 0.200 mmol [Fe]/kg. The Fe(III) complex stock solutions were adjusted to pH 7.2 by addition of meglumine and were injected intravenously via tail vein. MR data were recorded continuously for up to 1 h. Distribution studies and clearance kinetics were studied by using MR data acquired over several time points for up to 1 h, and additionally at 4 h and 24 h. For comparison, The Food and Drug Administration (FDA)-approved MRI contrast agent gadopentetate dimeglumine (Gd(DTPA), Magnevist®) and gadoterate meglumine (Gd(DOTA), Dotarem®) were injected at 50.0 μmol [Gd]/kg into separate group of mice and imaged as above.

[6] = parameters: method as in PMID 31725934; conditions: comparison complex, no titration described in this paper; cited from earlier work
[7] = cited from earlier work; for relaxivity: 4.7 T printed for Fe(EDTA) only
[8] = parameters: method as in PMID 31725934; conditions: 1-octanol/water; cited from earlier work

Q: Which “dissociation in acidic solution” value ([1]; over 24 h) does the source give for `C[C@H]([O-])CN1CCN(Cc2ccccc2)CCN(C[C@H](C)O)CC1.O.[Fe+3]` [Fe(L3)(OH2)] here?
A: 14%

Q: What about the “dissociation in acidic solution” value ([1]; over 72 h) of the same compound?
A: 38%

Q: What about the “electrode potential (E1/2) vs. Ag/AgCl” value ([2]; pH 3) of the same compound?
A: 112 mV

Q: What about the “electrode potential (E1/2) vs. NHE” value ([2]; pH 3) of the same compound?
A: 400 mV

Q: What about the “electrode potential (E1/2) vs. Ag/AgCl” value ([2]; pH 7) of the same compound?
A: −588 mV

Q: And the “electrode potential (E1/2) vs. NHE” value ([2]; pH 7)?
A: −300 mV

Q: And the “duration of enhanced kidney contrast” value (Balb/c mice [3])?
A: up to four hours

Q: And the “HSA Binding (%)” value [4]?
A: 75% and 75.1 ± 3.7%

Q: What about the “T1-weighted contrast enhancement compared with other agents” value (Balb/c mice [5]) of the same compound?
A: much stronger than that of Fe(L1)(OH2) or Gd(DOTA)

Q: What about the “Log K1 (pKa2)” value [6] of the same compound?
A: 7.17 ± 0.01

Q: And the “r2 4.7 T” value ([7]; 4.7 T)?
A: 4.5 ± 1.1 mM⁻¹ s⁻¹

Q: What about the “r1 4.7 T” value ([7]; buffer, pH 7.4, 37 °C, 4.7 T) of the same compound?
A: 2.2 mM⁻¹ s⁻¹ and 2.2 ± 0.30 mM⁻¹ s⁻¹

Q: And the “r1 in HSA 4.7 T” value ([7]; in HSA, 4.7 T)?
A: 2.5 ± 0.10 mM⁻¹ s⁻¹

Q: What about the “r2 in HSA 4.7 T” value ([7]; in HSA, 4.7 T) of the same compound?
A: 4.2 ± 0.70 mM⁻¹ s⁻¹

Q: What about the “Log P” value [8] of the same compound?
A: −0.13

Q: With `O=C([O-])CN(CCN(CC(=O)[O-])CC(=O)[O-])CC(=O)[O-].[Fe+3]` [Fe(EDTA)] as the compound, how does the relaxivity [7] read?
A: 1.4 mM⁻¹ s⁻¹

Q: With `O=C([O-])CN(CCN(CC(=O)[O-])CC(=O)[O-])CCN(CC(=O)[O-])CC(=O)[O-].[Fe+3]` [Fe(DTPA)] as the compound, how does the relaxivity [7] read?
A: 0.51 mM⁻¹ s⁻¹

Q: For `CNC[C@H](O)[C@@H](O)[C@H](O)[C@H](O)CO.CNC[C@H](O)[C@@H](O)[C@H](O)[C@H](O)CO.O=C([O-])CN(CCN(CC(=O)[O-])CC(=O)O)CCN(CC(=O)[O-])CC(=O)O.[Gd+3]` [Gd(DTPA), gadopentetate dimeglumine], which “r1 9.4 T” value ([7]; 9.4 T) is on record?
A: 2.5 mM⁻¹ s⁻¹

Q: And the “r1 4.7 T” value ([7]; buffer, pH 7.4, 37 °C, 4.7 T)?
A: 3.1 mM⁻¹ s⁻¹

Q: And the “r1 in HSA 4.7 T” value ([7]; in HSA, 4.7 T)?
A: 3.2 mM⁻¹ s⁻¹

Q: Which results are given for `CNC[C@H](O)[C@@H](O)[C@H](O)[C@H](O)CO.O=C([O-])CN1CCN(CC(=O)[O-])CCN(CC(=O)O)CCN(CC(=O)[O-])CC1.[Gd+3]` [Gd(DOTA), gadoterate meglumine]?
A: r1 4.7 T ([7]; 4.7 T): 2.8 ± 0.10 mM⁻¹ s⁻¹; r2 4.7 T ([7]; 4.7 T): 3.7 ± 0.20 mM⁻¹ s⁻¹
